Reference: article PMC8787749, “4-Deoxy-4-fluoro-GalNAz (4FGalNAz) Is a Metabolic Chemical Reporter of O-GlcNAc Modifications, Highlighting the Notable Substrate Flexibility of O-GlcNAc Transferase” (ACS Chemical Biology, 2021)

Tests used:
Test in all cases: UDP-Glo UDP release assay
Assay type in all cases: biochemical
GALNT1 = biological target: T1, GALNT1 (Homo sapiens, UniProt Q10472); settings: 50 μM UDP sugar, 50 μM MUC5AC peptide, 10 nM enzyme, 25 mM Tris-HCl pH 7.4, 10 mM MnCl2, room temperature
T1 construct: truncated, residues 41-559, plasmid hT1-pKN55, secreted from Pichia pastoris SMD1163, Ni-NTA purified
T1 sequence (Q10472 41-559): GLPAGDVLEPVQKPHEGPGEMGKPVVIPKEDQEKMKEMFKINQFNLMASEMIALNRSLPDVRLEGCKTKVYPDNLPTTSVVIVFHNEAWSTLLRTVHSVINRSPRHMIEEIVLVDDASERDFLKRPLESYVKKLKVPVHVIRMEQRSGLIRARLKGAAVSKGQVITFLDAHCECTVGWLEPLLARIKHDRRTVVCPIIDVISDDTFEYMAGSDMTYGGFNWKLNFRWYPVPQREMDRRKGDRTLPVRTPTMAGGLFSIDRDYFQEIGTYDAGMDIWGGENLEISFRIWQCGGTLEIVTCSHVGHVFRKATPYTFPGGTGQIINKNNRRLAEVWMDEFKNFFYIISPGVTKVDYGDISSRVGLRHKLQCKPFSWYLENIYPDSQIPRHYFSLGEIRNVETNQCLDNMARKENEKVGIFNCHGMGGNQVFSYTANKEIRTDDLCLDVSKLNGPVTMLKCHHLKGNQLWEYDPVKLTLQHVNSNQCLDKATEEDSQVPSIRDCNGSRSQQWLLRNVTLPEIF

GALNT2 = biological target: T2, GALNT2 (Homo sapiens, UniProt Q10471); settings: 50 μM UDP sugar, 50 μM MUC5AC peptide, 150 nM enzyme, 25 mM Tris-HCl pH 7.4, 10 mM MnCl2, room temperature
T2 construct: truncated, residues 75-572 as printed, hT2-pKN55 vector, secreted from Pichia pastoris SMD1163, Ni-NTA purified
T2 sequence (Q10471 75-571): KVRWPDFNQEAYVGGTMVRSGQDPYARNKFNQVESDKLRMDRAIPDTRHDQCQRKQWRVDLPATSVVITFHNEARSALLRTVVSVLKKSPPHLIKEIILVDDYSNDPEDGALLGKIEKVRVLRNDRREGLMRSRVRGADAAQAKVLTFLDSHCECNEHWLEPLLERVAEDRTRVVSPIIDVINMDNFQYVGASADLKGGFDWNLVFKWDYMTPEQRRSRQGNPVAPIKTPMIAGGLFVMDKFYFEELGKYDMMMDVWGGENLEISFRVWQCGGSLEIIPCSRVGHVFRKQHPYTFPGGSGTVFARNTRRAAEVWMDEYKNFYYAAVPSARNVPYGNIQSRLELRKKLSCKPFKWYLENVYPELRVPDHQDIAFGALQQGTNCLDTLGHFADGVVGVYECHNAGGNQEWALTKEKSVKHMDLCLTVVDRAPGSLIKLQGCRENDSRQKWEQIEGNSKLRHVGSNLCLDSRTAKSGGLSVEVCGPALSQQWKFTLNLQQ

ncOGT (OGT) = biological target: T3, ncOGT (OGT) (Homo sapiens, UniProt O15294); settings: 40 μM UDP sugar, 125 μM CKII3K peptide, 300 nM enzyme, 25 mM Tris-HCl pH 7.4, 150 mM NaCl, room temperature
T3 sequence (O15294 2-1046): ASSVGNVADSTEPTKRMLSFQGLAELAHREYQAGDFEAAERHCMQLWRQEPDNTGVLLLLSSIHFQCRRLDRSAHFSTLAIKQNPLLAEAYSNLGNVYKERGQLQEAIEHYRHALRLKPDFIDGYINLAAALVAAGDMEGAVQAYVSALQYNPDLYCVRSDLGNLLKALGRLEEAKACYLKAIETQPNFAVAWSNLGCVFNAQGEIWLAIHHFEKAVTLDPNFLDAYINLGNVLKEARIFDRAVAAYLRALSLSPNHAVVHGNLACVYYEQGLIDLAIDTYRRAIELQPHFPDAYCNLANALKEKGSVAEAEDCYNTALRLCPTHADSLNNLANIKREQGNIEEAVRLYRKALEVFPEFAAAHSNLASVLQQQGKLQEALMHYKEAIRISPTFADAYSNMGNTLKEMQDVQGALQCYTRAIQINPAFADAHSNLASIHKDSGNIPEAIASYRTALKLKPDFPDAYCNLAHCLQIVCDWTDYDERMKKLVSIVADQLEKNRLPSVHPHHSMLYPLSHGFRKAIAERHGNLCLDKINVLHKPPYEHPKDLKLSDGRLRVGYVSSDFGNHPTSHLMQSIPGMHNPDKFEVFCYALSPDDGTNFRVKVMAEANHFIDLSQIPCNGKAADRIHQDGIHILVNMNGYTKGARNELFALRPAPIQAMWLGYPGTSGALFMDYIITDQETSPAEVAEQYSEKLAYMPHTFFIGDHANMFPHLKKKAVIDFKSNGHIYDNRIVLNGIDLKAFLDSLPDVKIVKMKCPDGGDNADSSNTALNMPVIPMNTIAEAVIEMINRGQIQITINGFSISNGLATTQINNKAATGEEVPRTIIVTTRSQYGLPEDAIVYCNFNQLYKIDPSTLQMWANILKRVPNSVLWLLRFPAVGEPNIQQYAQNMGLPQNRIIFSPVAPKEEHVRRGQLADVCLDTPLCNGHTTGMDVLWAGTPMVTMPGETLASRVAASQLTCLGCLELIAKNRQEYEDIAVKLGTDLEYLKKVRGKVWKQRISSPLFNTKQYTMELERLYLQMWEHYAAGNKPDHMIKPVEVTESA

CC(=O)N[C@H]1[C@@H](OP(=O)(O)OP(=O)(O)OC[C@H]2O[C@@H](n3ccc(=O)[nH]c3=O)[C@H](O)[C@@H]2O)O[C@H](CO)[C@H](O)[C@@H]1O [UDP-GalNAc]
UDP-Glo UDP release assay (GALNT1): despite clear turnover of the native UDP-GalNAc substrate | UDP-Glo UDP release assay (GALNT2): despite clear turnover of the native UDP-GalNAc substrate

CC(=O)N[C@H]1[C@@H](OP(=O)(O)OP(=O)(O)OC[C@H]2O[C@@H](n3ccc(=O)[nH]c3=O)[C@H](O)[C@@H]2O)O[C@H](CO)[C@@H](O)[C@@H]1O [UDP-GlcNAc]
UDP-Glo UDP release assay (ncOGT (OGT)): OGT accepted UDP-GalNAc but less efficiently than UDP-GlcNAc
